Patent publication US8957075B2, “O-GlcNAc transferase inhibitors and uses thereof” (priority 2009, dated 2015)

Molecular target: T1, sOGT (Homo sapiens (Human), UniProt O15294)
Test: Fluorescence polarization screen of quinolinesulfonamide library for OGT inhibition (displacement of fluorescein-linked UDP-GlcNAc analog)
Type: binding
Settings: rough Ki values from fluorescence polarization results and Kd of the probe; 1-2 μM sOGT, 50 nM probe
Protocol: Compound libraries of the 4 concentrations in duplicated were then transferred to the assay plates using a 100 nL pin array, resulting in a final compound concentration of 25 μg/mL or ˜70 μM at the highest of the four concentrations, assuming an average compound MW of 350. Using a Perkin Elmer Envision® microplate reader, the sample was excited at 480 nm in the vertical plane, and simultaneous emission intensity (535 nm) of the vertical and horizontal polarization planes was measured. The polarization was calculated using the following equation: eq4: mP=1000*(V−G*H)/(V+G*H) where: mP=millipolarization units, V=intensity of vertically polarized emission (RFU), H=intensity of horizontally polarized emission (RFU), and G=gain.

T1 sequence (O15294 382-1046, species assumed): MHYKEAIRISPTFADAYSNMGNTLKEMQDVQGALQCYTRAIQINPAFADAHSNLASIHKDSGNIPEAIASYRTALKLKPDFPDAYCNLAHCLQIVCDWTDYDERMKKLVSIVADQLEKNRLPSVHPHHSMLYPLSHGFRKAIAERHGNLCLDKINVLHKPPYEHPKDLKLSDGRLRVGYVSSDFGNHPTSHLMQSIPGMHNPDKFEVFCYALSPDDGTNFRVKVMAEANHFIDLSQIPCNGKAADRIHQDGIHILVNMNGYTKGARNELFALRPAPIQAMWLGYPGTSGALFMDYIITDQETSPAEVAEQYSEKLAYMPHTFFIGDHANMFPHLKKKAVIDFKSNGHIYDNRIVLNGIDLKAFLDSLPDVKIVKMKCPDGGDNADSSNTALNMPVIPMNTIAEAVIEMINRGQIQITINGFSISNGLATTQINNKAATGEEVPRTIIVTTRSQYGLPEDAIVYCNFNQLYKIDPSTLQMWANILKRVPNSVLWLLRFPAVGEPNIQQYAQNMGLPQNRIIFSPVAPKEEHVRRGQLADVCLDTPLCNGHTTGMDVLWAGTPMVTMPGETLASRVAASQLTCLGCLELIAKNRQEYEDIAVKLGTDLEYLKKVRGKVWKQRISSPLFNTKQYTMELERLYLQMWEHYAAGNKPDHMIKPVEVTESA

**Q.** `Cc1cccc(N(C)C(=O)C(NS(=O)(=O)c2ccc3c(c2)CCC(=O)N3)c2ccccc2)c1` (stereo not shown) was tested. Which Ki did it give?
**A.** Its Ki is 7.4 µM.

**Q.** Which Ki does the source give for `COc1cccc(N2CCN(C(=O)C(NS(=O)(=O)c3ccc4c(c3)CCC(=O)N4)c3ccccc3)CC2)c1` (stereo not shown) here?
**A.** Its Ki is 6.3 µM.

**Q.** `O=C1CCc2cc(S(=O)(=O)NC(C(=O)NCc3ccc(Cl)cc3)c3ccccc3)ccc2N1` (stereo not shown) was tested. Which Ki did it give?
**A.** The Ki was 6.6 µM.

**Q.** `O=C1CCc2cc(S(=O)(=O)NC(C(=O)N3CCC(Cc4ccccc4)CC3)c3ccccc3)ccc2N1` (stereo not shown) was tested. Which Ki did it give?
**A.** Its Ki is 2 µM.

**Q.** For `Cc1cccc(C)c1NC(=O)C(NS(=O)(=O)c1ccc2c(c1)CCC(=O)N2)c1ccccc1` (stereo not shown), which Ki is on record?
**A.** Its Ki is 37 µM.

**Q.** Which Ki does the source give for `O=C1CCc2cc(S(=O)(=O)NC(C(=O)N3CCN(c4ccccn4)CC3)c3ccccc3)ccc2N1` (stereo not shown) here?
**A.** The Ki was 4.2 µM.

**Q.** With `CCc1cccc(C)c1NC(=O)C(NS(=O)(=O)c1ccc2c(c1)CCC(=O)N2)c1ccccc1` (stereo not shown) as the molecule, how does the Ki read?
**A.** Its Ki is 97 µM.

**Q.** With `O=C1CCc2cc(S(=O)(=O)NC(C(=O)N3CCN(C4CCCCC4)CC3)c3ccccc3)ccc2N1` (stereo not shown) as the molecule, how does the Ki read?
**A.** Its Ki is 20 µM.

**Q.** Which Ki does the source give for `Cc1ccc(NC(=O)C(NS(=O)(=O)c2ccc3c(c2)CCC(=O)N3)c2ccccc2)c(Br)c1` (stereo not shown) here?
**A.** Its Ki is 52 µM.

**Q.** How did the Ki turn out when `O=C1CCc2cc(S(=O)(=O)NC(C(=O)N3CCN(C(=O)c4ccco4)CC3)c3ccccc3)ccc2N1` (stereo not shown) was run?
**A.** Its Ki is 11 µM.

**Q.** How did the Ki turn out when `Cc1ccc(N2CCN(C(=O)C(NS(=O)(=O)c3ccc4c(c3)CCC(=O)N4)c3ccccc3)CC2C)cc1` (stereo not shown) was run?
**A.** Its Ki is 3.2 µM.

**Q.** Which Ki does the source give for `CC(c1cccs1)N(Cc1ccco1)C(=O)C(NS(=O)(=O)c1ccc2c(c1)CCC(=O)N2)c1ccccc1` (stereo not shown) here?
**A.** The Ki was 1.6 µM.

**Q.** For `Cc1cc(C)c(NC(=O)C(NS(=O)(=O)c2ccc3c(c2)CCC(=O)N3)c2ccccc2)c(C)c1` (stereo not shown), which Ki is on record?
**A.** Its Ki is 5.6 µM.

**Q.** How did the Ki turn out when `CCN(CC)C(=O)C(NS(=O)(=O)c1ccc2c(c1)CCC(=O)N2)c1ccccc1` (stereo not shown) was run?
**A.** The Ki was 21 µM.

**Q.** With `O=C(O)CC(NS(=O)(=O)c1ccc2c(c1)CCC(=O)N2)c1cccc(Cl)c1` (stereo not shown) as the molecule, how does the Ki read?
**A.** The Ki was 15 µM.

**Q.** `CN(Cc1ccco1)C(=O)C(Cc1ccccc1)NS(=O)(=O)c1ccc2c(c1)CCC(=O)N2` (stereo not shown) was tested. Which Ki did it give?
**A.** Its Ki is 13 µM.

**Q.** How did the Ki turn out when `CCOc1ccccc1NS(=O)(=O)c1ccc2[nH]c(=O)ccc2c1` was run?
**A.** The Ki was 4.7 µM.

**Q.** For `COc1ccc(NS(=O)(=O)c2ccc3[nH]c(=O)ccc3c2)cc1OC`, which Ki is on record?
**A.** Its Ki is 7.2 µM.

**Q.** Which Ki does the source give for `Cc1ccc(N2CCN(C(=O)C(NS(=O)(=O)c3ccc4c(c3)CCC(=O)N4)c3ccccc3)CC2)cc1` (stereo not shown) here?
**A.** The Ki was 9 µM.

**Q.** For `CN(CC(=O)Nc1nc2ccc(Cl)cc2s1)S(=O)(=O)c1ccc2[nH]c(=O)ccc2c1`, which Ki is on record?
**A.** Its Ki is 60 µM.

**Q.** For `O=C1CCc2cc(S(=O)(=O)NC(C(=O)NCc3ccccc3)c3ccccc3)ccc2N1` (stereo not shown), which Ki is on record?
**A.** Its Ki is 125 µM.

**Q.** Which Ki does the source give for `COc1cc2c(cc1OC)C(C)N(S(=O)(=O)c1ccc3[nH]c(=O)ccc3c1)CC2` (stereo not shown) here?
**A.** The Ki was 50 µM.

**Q.** With `O=C1CCc2cc(S(=O)(=O)NC(C(=O)N(Cc3ccco3)Cc3cccs3)c3ccccc3)ccc2N1` (stereo not shown) as the molecule, how does the Ki read?
**A.** The Ki was 4 µM.

**Q.** For `CC(C)N(Cc1ccccc1)C(=O)C(NS(=O)(=O)c1ccc2c(c1)CCC(=O)N2)c1ccccc1` (stereo not shown) [drawing 86], which Ki is on record?
**A.** Its Ki is 5.7 µM.

**Q.** Which Ki does the source give for `CC(C)N(Cc1ccccc1)C(=O)C(NS(=O)(=O)c1ccc2c(c1)CCC(=O)N2)c1ccccc1` (stereo not shown) [drawing 98] here?
**A.** The Ki was 7 µM.

**Q.** `O=C(C(NS(=O)(=O)c1ccc2[nH]c(=O)ccc2c1)c1ccccc1)N(Cc1ccco1)Cc1cccs1` (stereo not shown) [drawing 100] was tested. Which Ki did it give?
**A.** Its Ki is 0.4 µM.

Molecular target: T1, sOGT
Test: Secondary assay: transfer of UDP-14C-GlcNAc to casein kinase II derived peptide by sOGT
Type: biochemical
Settings: 500 μM peptide, 6.25 μM UDP-14C-GlcNAc, ~20-40 nM sOGT; read-out: IC50 (OGT inhibition)
Protocol: Hits were examined in a secondary assay involving the transfer of UDP-^14C-GlcNAc to a peptide derived from casein kinase II, which contains a known OGT glycosylation site, as described by Hart and co-workers (see manuscript, reference 4). Three lysines and a tyrosine were added to the N-terminus of this peptide substrate ([sequence]) to allow capture on phosphocellulose discs and UV detection, respectively. […] Reactions were spotted on Whatman P81 phosphocellulose discs, washed three times for five minutes in 1% phosphoric acid, and counted by liquid scintillation counting. IC50s curves were determined from the counts of the reactions and IC50s were determined.

**Q.** Which IC50 does the source give for `O=C(C(NS(=O)(=O)c1ccc2[nH]c(=O)ccc2c1)c1ccccc1)N(Cc1ccco1)Cc1cccs1` (stereo not shown) [Example 3, N-(furan-2-ylmethyl)-2-(2-oxo-1,2-dihydroquinoline-6-sulfonamido)-2-phenyl-N-(thiophen-2-ylmethyl)acetamide] here?
**A.** Its IC50 is 0.39 µM.

Tested on: HEK293 cells
Test: Glucosamine-induced cellular-wide O-GlcNAcylation changes in HEK cells (western blot, CTD110.6 antibody)
Type: cell-based
Settings: 12.5 μM compound, 4 mM glucosamine, 16 hours
Protocol: The efficacy of the inhibitor in cell culture was evaluated by adding compound N08 to HEK293 cells.HEK293 cells were grown in 6 well plates using low glucose (5 mM) DMEM with 10% FBS as the media. […] After mixing the compounds the media was removed from the cultured cells and the inhibitor-media solutions was added to the cells. After cells were incubated with the inhibitors for 16 hours (overnight), the cells were rinsed with PBS, removed using cell scrapers, transferred to 1.5 ml microcentrifuge tubes, pelleted by centrifugation, and lysed by resuspending in 100 μl RIPA buffer with protease and phosphatase inhibitor cocktails (SIGMA). After incubating on ice the debris were pelleted down, and the supernatant was collected as whole cell lysate. Total protein concentration of each sample was determined by Bradford Assay in order to normalize levels of protein loaded onto a gel. Then 2×SDS-PAGE sample buffer was added to each sample, they were boiled for 10 minutes, and loaded onto a denaturing polyacrylamide gel (4-20% gradient), transferred to nitrocellulose membrane, blocked with 1% BSA for 1 hour, and probed with the monoclonal O-GlcNAc antibody, CTD110.6 (Covance), incubated at a 1:5000 dilution in 1% BSA overnight at 4° C., followed by addition of anti-mouse HRP secondary antibody. Pierce SuperSignal West Pico Chemiluminescent substrate was added to perform the western blot.

**Q.** For `O=C(C(NS(=O)(=O)c1ccc2[nH]c(=O)ccc2c1)c1ccccc1)N(Cc1ccco1)Cc1cccs1` (stereo not shown) [Example 3, N-(furan-2-ylmethyl)-2-(2-oxo-1,2-dihydroquinoline-6-sulfonamido)-2-phenyl-N-(thiophen-2-ylmethyl)acetamide], which “Effect on glucosamine-induced cellular-wide O-GlcNAcylation” value is on record?
**A.** Its value is “reduces glucosamine-induced cellular-wide O-GlcNAcylation changes to normal levels”.
